Active and inactive are the calls of the source. The rule behind the calls is not given here.
How the values were obtained:
[1] = molecular target: T1, N-formyl peptide receptor 2 (Homo sapiens, UniProt P25090); assay: Activity at human FPRL1-mediated calcium mobilization in CHO cells; type: functional, cell-based
T1 sequence (P25090 whole entry): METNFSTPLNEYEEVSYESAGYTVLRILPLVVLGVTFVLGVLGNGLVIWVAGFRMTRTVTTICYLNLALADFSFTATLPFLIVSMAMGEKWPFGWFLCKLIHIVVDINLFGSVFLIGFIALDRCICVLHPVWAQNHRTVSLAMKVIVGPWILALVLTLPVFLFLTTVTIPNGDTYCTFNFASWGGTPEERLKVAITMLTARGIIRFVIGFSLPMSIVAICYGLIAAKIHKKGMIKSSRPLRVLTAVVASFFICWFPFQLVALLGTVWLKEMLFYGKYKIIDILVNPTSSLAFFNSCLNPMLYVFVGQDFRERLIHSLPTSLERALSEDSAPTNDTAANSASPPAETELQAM

Mus musculus [2] = species: Mus musculus; assay: Reduction of swelling in mouse ear at 25 ug; type: functional
Mus musculus [3] = species: Mus musculus; assay: Reduction of swelling in mouse ear at 30 ug; type: functional; parameters: scale not given: the % may be the effect or the level left
Mus musculus [4] = assay: Reduction of edema in mouse ear inflammation model at 1 mg/kg, po; type: functional; parameters: scale not given: the % may be the effect or the level left
Mus musculus [5] = species: Mus musculus; assay: Reduction of swelling in mouse ear at 2.5 ug; type: functional; parameters: scale not given: the % may be the effect or the level left
Mus musculus [6] = species: Mus musculus; assay: Reduction of swelling in mouse ear at 0.25 ug; type: functional; parameters: scale not given: the % may be the effect or the level left
PMNL [7] = assay: Inhibition of IL8-induced PMN migration; type: functional, cell-based; details: Homo sapiens
PMNL [8] = assay: Inhibition of fMLP-induced PMN migration; type: functional, cell-based; details: Homo sapiens
Mus musculus [9] = assay: Unbound ligand concentration in mouse plasma at 16.6 mg/kg; type: ADME, organism-based; parameters: dose 16.6 mg/kg; details: in vivo
Mus musculus [10] = assay: Unbound ligand concentration in mouse plasma at 50 mg/kg; type: ADME, organism-based; parameters: dose 50 mg/kg; details: in vivo
[11] = Protein binding in mouse plasma; type: ADME, organism-based; details: read-out: PPB (converted)
Mus musculus [12] = assay: Reduction of edema in mouse ear inflammation model at 16.6 mg/kg, po; type: functional; parameters: scale not given: the % may be the effect or the level left
Mus musculus [13] = assay: Reduction of edema in mouse ear inflammation model at 50 mg/kg, po; type: functional; parameters: scale not given: the % may be the effect or the level left
Mus musculus [14] = assay: Unbound ligand concentration in mouse plasma at 5 mg/kg; type: ADME, organism-based; parameters: dose 5 mg/kg; details: in vivo
[15] = Half life in rat at 0.5 mg/kg, iv; type: ADME, organism-based; parameters: dose 0.5 mg/kg, route intravenous; details: in vivo
[16] = Clearance in rat at 0.5 mg/kg, iv; type: ADME, organism-based; parameters: dose 0.5 mg/kg, route intravenous; details: in vivo
[17] = Bioavailability in rat at 2 mg/kg, po; type: ADME, organism-based; details: in vivo
Mus musculus [18] = assay: Reduction of edema in mouse ear inflammation model at 5 mg/kg, po; type: functional; parameters: scale not given: the % may be the effect or the level left

SMILES	EC50 [1]	further results
CCc1ccc(NC(=O)Nc2c(C)n(C)n(-c3ccccc3)c2=O)cc1	770 nM	–
CC(C)c1c(NC(=O)Nc2ccc(C(F)(F)F)cc2)c(=O)n(-c2cncnc2)n1C	150 nM	–
CSc1ccc(NC(=O)Nc2c(C)n(C)n(-c3ccccc3)c2=O)cc1	170 nM	–
CC(C)c1c(NC(=O)Nc2ccc(Cl)cc2)c(=O)n(C2=NCCS2)n1C	540 nM	–
CCCCC(Oc1ccccc1)[C@@H](O)/C=C/C=C\C=C\C=C\[C@@H](O)[C@@H](O)CCCC(=O)O (stereo not given in full)	–	Activity (Mus musculus [2]): Active
CC(C)c1c(NC(=O)Nc2ccc(C(F)(F)F)cc2)c(=O)n(-c2cnc3ccccc3c2)n1C	44 nM	–
CSc1ccc(NC(=O)Nc2c(C(C)C)n(C)n(C3=NCCS3)c2=O)cc1	5130 nM	–
CC(C)c1c(NC(=O)Nc2ccc(Cl)cc2)c(=O)n(-c2cnc3ccccc3c2)n1C	80 nM	–
Cc1c(NC(=O)Nc2ccc3c(c2)OCO3)c(=O)n(-c2ccccc2)n1C	5880 nM	–
C[C@@H]1C[C@H]2[C@@H]3CCC4=CC(=O)C=C[C@]4(C)[C@@]3(F)[C@@H](O)C[C@]2(C)[C@@]1(O)C(=O)CO [DEXAMETHASONE]	–	Activity (Mus musculus [3]): 71%; Activity (Mus musculus [4]): 54%
Cc1cc(NC(=O)Nc2c(C)n(C)n(-c3ccccc3)c2=O)ccc1F	> 10000 nM	–
Cc1c(NC(=O)Nc2cccc(Cl)c2)c(=O)n(-c2ccccc2)n1C	> 10000 nM	–
Cc1c(NC(=O)Nc2ccc(C(C)C)cc2)c(=O)n(-c2ccccc2)n1C	12300 nM	–
Cn1c(C(C)(C)C)c(NC(=O)Nc2ccc(Cl)cc2)c(=O)n1-c1ccccc1	23 nM	–
CC(C)c1c(NC(=O)Nc2ccccc2Cl)c(=O)n(-c2ccccc2)n1C	> 10000 nM	–
Cc1c(NC(=O)Nc2ccc(C(F)(F)F)cc2)c(=O)n(-c2ccccc2)n1C	100 nM	–
CCn1c(C(C)C)c(NC(=O)Nc2ccc(C)c(F)c2)c(=O)n1-c1ccccc1	100 nM	–
Cc1c(NC(=O)Nc2ccccc2Cl)c(=O)n(-c2ccccc2)n1C	> 10000 nM	–
Cc1c(NC(=O)Nc2ccc(I)cc2)c(=O)n(-c2ccccc2)n1C	30 nM	Activity (Mus musculus [2]): 52%; Activity (Mus musculus [5]): 35%; Activity (Mus musculus [6]): 31%; IC50 (PMNL [7]): 2000 nM; IC50 (PMNL [8]): 2000 nM

SMILES	EC50 [1]	further results
COc1ccc(NC(=O)Nc2c(C)n(C)n(-c3ccccc3)c2=O)cc1	2730 nM	–
CSc1ccc(NC(=O)Nc2c(C(C)C)n(C)n(-c3cnc4ccccc4c3)c2=O)cc1	30 nM	–
Cc1c(NC(=O)Nc2ccc(C#N)cc2)c(=O)n(-c2ccccc2)n1C	3700 nM	–
CSc1ccc(NC(=O)Nc2c(C(C)C)n(C)n(-c3cncnc3)c2=O)cc1	43 nM	–
CC(C)c1c(NC(=O)Nc2ccc(Cl)cc2)c(=O)n(-c2cncnc2)n1C	250 nM	–
Cc1ccc(NC(=O)Nc2c(C(C)C)n(C)n(-c3ccccc3)c2=O)cc1F	81 nM	–
Cc1c(NC(=O)Nc2nccs2)c(=O)n(-c2ccccc2)n1C	> 10000 nM	–
Cc1ccc(NC(=O)Nc2c(C)n(C)n(-c3ccccc3)c2=O)cc1	1260 nM	–
CCc1c(NC(=O)Nc2ccc(Cl)cc2)c(=O)n(-c2ccccc2)n1C	140 nM	–
CC1C(N(C)C(=O)N(C)c2ccc(I)cc2)C(=O)N(c2ccccc2)N1C (stereo not given)	> 10000 nM	Activity (Mus musculus [2]): 8%; Activity (Mus musculus [5]): 8%; Activity (Mus musculus [6]): 2%; IC50 (PMNL [7]): > 10000 nM; IC50 (PMNL [8]): > 10000 nM
CC(C)c1c(NC(=O)Nc2ccc(Cl)cc2)c(=O)n(-c2ccccc2)n1C	–	unbound plasma concentration (Mus musculus [9]): 17 nM; unbound plasma concentration (Mus musculus [10]): 185 nM; fraction unbound [11]: 0.021; Activity (Mus musculus [12]): 39%; Activity (Mus musculus [13]): 58%; unbound plasma concentration (Mus musculus [14]): 14 nM; half-life [15]: 2.78 h; clearance [16]: 2.1 mL/min/kg; bioavailability [17]: 91%; IC50 (PMNL [7]): 240 nM; Activity (Mus musculus [18]): 11%; IC50 (PMNL [8]): 640 nM
Cc1ccc(NC(=O)Nc2c(C(C)(C)C)n(C)n(-c3ccccc3)c2=O)cc1F	83 nM	–
CCc1c(NC(=O)Nc2ccc(C)c(F)c2)c(=O)n(-c2ccccc2)n1C	310 nM	–
Cc1c(NC(=O)Nc2ccccc2)c(=O)n(-c2ccccc2)n1C	> 10000 nM	–
Cc1c(NC(=O)Nc2ccc(Cl)cc2)c(=O)n(-c2ccccc2)n1C	490 nM	–
Cc1c(NC(=O)Nc2ccc(F)cc2)c(=O)n(-c2ccccc2)n1C	4850 nM	–
CC(C)c1c(NC(=O)Nc2ccc(C(F)(F)F)cc2)c(=O)n(C2=NCCS2)n1C	1470 nM	–
Cc1ccc(NC(=O)Nc2c(C)n(C)n(-c3ccccc3)c2=O)cc1F	980 nM	–
Cc1c(NC(=O)Nc2ccc(Br)cc2)c(=O)n(-c2ccccc2)n1C	90 nM	–
